Results published in patent US7087629B2, “Heterocyclylaminomethyloxazolidinones as antibacterials” (AstraZeneca AB, priority 1998, dated 2006).
Converted amounts (≈) assume the structure as drawn.

Columns and labels:
Type in all cases: cell-based
[1] = system: Coagulase Negative Staphylococci MR (methicillin resistant); test: MIC by agar-dilution, Coagulase Negative Staphylococci MR; conditions: inoculum 10^4 CFU/spot, 37° C., 24 hours
Description: (§1) The following results were obtained on a standard in-vitro test system. The activity is described in terms of the minimum inhibitory concentration (MIC) detemined by the agar-dilution technique with an inoculum size of 10^4 CFU/spot. Typically, compounds are active in the range 0.01 to 256 μg/ml.
(§2) Staphylococci were tested on agar, using an inoculum of 10^4 CFU/spot and an incubation temperature of 37° C. for 24 hours—standard test conditions for the expression of methicillin resistance.

[2] = system: Staphylococcus aureus MRQR (methicillin resistant quinolone resistant); test: MIC by agar-dilution, Staphylococcus aureus MRQR; conditions: inoculum 10^4 CFU/spot, 37° C., 24 hours
Description: as §1, §2

[3] = system: Coagulase Negative Staphylococci MS (methicillin sensitive); test: MIC by agar-dilution, Coagulase Negative Staphylococci MS; conditions: inoculum 10^4 CFU/spot, 37° C., 24 hours
Description: as §1, §2

[4] = system: Streptococcus pyogenes C203; test: MIC by agar-dilution, Streptococcus pyogenes C203; conditions: agar with 5% defibrinated horse blood, 10^4 CFU/spot, 37° C., 5% carbon dioxide, 48 hours
Description: as §1, with “μg/ml. Streptococci and enterococci were tested on agar supplemented with 5% defibrinated horse blood, an inoculum of 10^4 CFU/spot and an incubation temperature of 37° C. in an atmosphere of 5% carbon dioxide for 48 hours—blood is required for the growth of some of the test organisms.” for “μg/ml.”

[5] = system: Staphylococcus aureus Novb. Res (Novobiocin resistant); test: MIC by agar-dilution, Staphylococcus aureus Novb. Res; conditions: inoculum 10^4 CFU/spot, 37° C., 24 hours
Description: as §1, §2

[6] = system: Staphylococcus aureus Oxford; test: MIC by agar-dilution, Staphylococcus aureus Oxford; conditions: inoculum 10^4 CFU/spot, 37° C., 24 hours
Description: as §1, §2

[7] = system: Enterococcus faecalis; test: MIC by agar-dilution, Enterococcus faecalis; conditions: agar with 5% defibrinated horse blood, 10^4 CFU/spot, 37° C., 5% carbon dioxide, 48 hours
Description: as §1, with “μg/ml. Streptococci and enterococci were tested on agar supplemented with 5% defibrinated horse blood, an inoculum of 10^4 CFU/spot and an incubation temperature of 37° C. in an atmosphere of 5% carbon dioxide for 48 hours—blood is required for the growth of some of the test organisms.” for “μg/ml.”

[8] = system: Bacillus subtilis; test: MIC by agar-dilution, Bacillus subtilis; conditions: inoculum 10^4 CFU/spot
Description: as §1

Molecule `O=C1O[C@@H](CNc2ccon2)CN1c1ccc(N2CCOCC2)c(F)c1` [Example 2, 5(S)-Isoxazol-3-ylaminomethyl-3-(3-fluoro-4-morpholinophenyl)-oxazolidin-2-one] has an MIC [1] of 1 µg/mL (≈ 2.76 µM), an MIC [2] of 1 µg/mL (≈ 2.76 µM) and an MIC [3] of 0.5 µg/mL (≈ 1.38 µM). It also gave an MIC [4] of 1 µg/mL (≈ 2.76 µM), an MIC [5] of 1 µg/mL (≈ 2.76 µM) and an MIC [6] of 0.5 µg/mL (≈ 1.38 µM). The MIC [7] was 2 µg/mL (≈ 5.52 µM) and the MIC [8] was 0.5 µg/mL (≈ 1.38 µM).
